# Data as given in US20220324865A1 (Bayer Aktiengesellschaft, priority 2018, published 2022).
# Biological target: T1, human EP3 receptor (Homo sapiens, UniProt P43115)
# T1 construct: expressed in transfected cells; host or cells: CHO K1 (Chinese Hamster Ovary), stably co-transfected with Galpha16 and mitochondrial clytin
# T1 sequence (P43115 1-390): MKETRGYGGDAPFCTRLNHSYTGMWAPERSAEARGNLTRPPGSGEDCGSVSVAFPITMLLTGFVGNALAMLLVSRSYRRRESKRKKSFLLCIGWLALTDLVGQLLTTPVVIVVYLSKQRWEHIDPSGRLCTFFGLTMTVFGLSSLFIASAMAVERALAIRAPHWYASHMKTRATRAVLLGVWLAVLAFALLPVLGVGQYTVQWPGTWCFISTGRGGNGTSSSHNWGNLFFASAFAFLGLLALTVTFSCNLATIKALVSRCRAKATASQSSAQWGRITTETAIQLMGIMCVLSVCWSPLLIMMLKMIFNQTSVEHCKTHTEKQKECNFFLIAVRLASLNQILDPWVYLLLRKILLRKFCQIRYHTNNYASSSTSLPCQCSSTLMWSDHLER
# Assay: Cellular in vitro assay for determining EP3 receptor activity (human EP3 cell line, sulprostone-stimulated calcium luminescence)
# Assay type: cell-based
# Conditions: CHO cells expressing human EP3 and mitochondrial Clytin; antagonist mode, sulprostone at EC50; read-out: EP3 CHO mtCLY ANTAG IC50
# Summary of the method: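 Antagonist activity was measured as inhibition of the luminescent calcium signal elicited by EC50 sulprostone, following 10 min compound pretreatment. The cell line was recombinant CHO K1 co-expressing human EP3, Gα16 and the photoprotein Clytin, reconstituted with coelenterazine.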
row,IC50 [nM],Structure (SMILES)
1,1.48,"C[C@@H](NC(=O)c1cc2c(=O)[nH]c(-c3ccc4ccccc4n3)cn2n1)c1ccc(F)cc1 [Example 1-105, N-[(1R)-1-(4-Fluorophenyl)ethyl]-4-oxo-6-(quinolin-2-yl)-4,5-dihydropyrazolo[1,5-a]pyrazine-2-carboxamide]"
2,9.55,"CN1CCC(NC(=O)c2nn3cc(-c4ccc5ccccc5c4)[nH]c(=O)c3c2C(F)(F)F)(c2ccc(F)cc2)CC1 [Example 1-116, N-[4-(4-Fluorophenyl)-1-methylpiperidin-4-yl]-6-(naphthalen-2-yl)-4-oxo-3-(trifluoromethyl)-4,5-dihydropyrazolo[1,5-a]pyrazine-2-carboxamide]"
3,2.1,"CC[C@@H](C)NC(=O)c1nn2cc(-c3ccc(C)c(Cl)c3)[nH]c(=O)c2c1C(F)(F)F [Example 1-152, N-[(2R)-Butan-2-yl]-6-(3-chloro-4-methylphenyl)-4-oxo-3-(trifluoromethyl)-4,5-dihydropyrazolo-[1,5-a]pyrazine-2-carboxamide]"
4,3.3,"CN1CC(NC(=O)c2nn3cc(-c4ccc5ccccc5c4)[nH]c(=O)c3c2Cl)(c2ccc(F)cc2)C1 [Example 1-119, 3-Chloro-N-[3-(4-fluorophenyl)-1-methylazetidin-3-yl]-6-(naphthalen-2-yl)-4-oxo-4,5-dihydropyrazolo[1,5-a]pyrazine-2-carboxamide]"
5,1.6,"Cc1cccc2ncc(-c3cn4nc(C(=O)Nc5cccc6ncccc56)c(C(C)C)c4c(=O)[nH]3)cc12 [Example 4-29, 6-(5-Methylquinolin-3-yl)-4-oxo-3-(propan-2-yl)-N-(quinolin-5-yl)-4,5-dihydropyrazolo[1,5-a]pyrazine-2-carboxamide]"
6,2.9,Cc1ccc(-c2cn3nc(C(=O)N[C@@H](c4ccc(F)cc4)C(C)(C)O)c(C4CC4(F)F)c3c(=O)[nH]2)cc1Cl (stereo partly drawn) [6-563]
7,1.3,"Cc1ccc(-c2cn3nc(C(=O)NC(CO)c4ccc(F)cc4)c(C(F)(F)F)c3c(=O)[nH]2)cc1Cl (single isomer, unassigned) [6-156]"
8,0.95,"Cc1cc(CNC(=O)c2nn3cc(-c4cnc5cccc(C)c5c4)[nH]c(=O)c3c2C(C)C)on1 [Example 4-41, N-[(3-Methyl-1,2-oxazol-5-yl)methyl]-6-(5-methylquinolin-3-yl)-4-oxo-3-(propan-2-yl)-4,5-dihydropyrazolo[1,5-a]pyrazine-2-carboxamide]"
9,3.1,"Cc1ccnc(C(C)NC(=O)c2nn3cc(-c4cnc5cccc(C)c5c4)[nH]c(=O)c3c2C(C)C)n1 (stereo not drawn) [Example 4-47, 3-Isopropyl-N-[1-(4-methylpyrimidin-2-yl)ethyl]-6-(5-methyl-3-quinolyl)-4-oxo-5H-pyrazolo[1,5-a]pyrazine-2-carboxamide]"
10,1.4,CC(C)(O)[C@@H](NC(=O)c1nn2cc(-c3ccc(Cl)c(C(F)F)c3)[nH]c(=O)c2c1C1CC1)c1ccc(F)cc1 [6-666]
11,10.9,"CC(CN1CCOCC1)NC(=O)c1nn2cc(-c3ccc4ccccc4c3)[nH]c(=O)c2c1C(F)(F)F (single isomer, unassigned) [6-523]"
12,5.4,"Cc1c(C(=O)NCCOCC(F)(F)F)nn2c(C)c(-c3ccc4ccccc4c3)[nH]c(=O)c12 [Example 3-3, 3,7-Dimethyl-6-(naphthalen-2-yl)-4-oxo-N-[2-(2,2,2-trifluoroethoxy)ethyl]-4,5-dihydropyrazolo[1,5-a]pyrazine-2-carboxamide]"
13,7.2,"N#Cc1c(C(=O)NC2Cc3ccccc3C2)nn2cc(-c3ccc4ccccc4c3)[nH]c(=O)c12 [Example 3-55, 3-Cyano-N-(2,3-dihydro-1H-inden-2-yl)-6-(naphthalen-2-yl)-4-oxo-4,5-dihydropyrazolo[1,5-a]pyrazine-2-carboxamide]"
14,5.45,"Cc1cc(-c2cn3nc(C(=O)N[C@H](C)c4ccc(F)cc4)c(C4CC4)c3c(=O)[nH]2)ccc1C(F)(F)F [Example 1-131, 3-Cyclopropyl-N-[(1R)-1-(4-fluorophenyl)ethyl]-6-[3-methyl-4-(trifluoromethyl)phenyl]-4-oxo-4,5-dihydropyrazolo[1,5-a]pyrazine-2-carboxamide]"
15,2,"Cc1[nH]c2ccc(CNC(=O)c3nn4cc(-c5cnc6cccc(C)c6c5)[nH]c(=O)c4c3C(C)C)cc2c1C [Example 4-10, N-[(2,3-Dimethyl-1H-indol-5-yl)methyl]-6-(5-methylquinolin-3-yl)-4-oxo-3-(propan-2-yl)-4,5-dihydropyrazolo[1,5-a]pyrazine-2-carboxamide]"
16,0.37,"COCc1c(C(=O)N[C@H](C)c2ccc(OC)nc2)nn2cc(-c3ccc4ccccc4c3)[nH]c(=O)c12 [Example 1-22, 3-(Methoxymethyl)-N-[(1R)-1-(6-methoxypyridin-3-yl)ethyl]-6-(naphthalen-2-yl)-4-oxo-4,5-dihydropyrazolo[1,5-a]pyrazine-2-carboxamide]"
17,6.78,"Cc1ccc(-c2cn3nc(C(=O)NC(C)c4ccc(F)cc4)cc3c(=O)[nH]2)cc1C (stereo not drawn) [Example 5-1, 6-(3,4-Dimethylphenyl)-N-[1-(4-fluorophenyl)ethyl]-4-oxo-5H-pyrazolo[1,5-a]pyrazine-2-carboxamide]"
18,1.45,"CCn1ccc(C(C)NC(=O)c2nn3cc(-c4cnc5cccc(C)c5c4)[nH]c(=O)c3c2C(C)C)n1 (stereo not drawn) [Example 4-13, N-[1-(1-Ethylpyrazol-3-yl)ethyl]-3-isopropyl-6-(5-methyl-3-quinolyl)-4-oxo-5H-pyrazolo[1,5-a]pyrazine-2-carboxamide]"
19,2.35,"CC(NC(=O)c1nn2cc(-c3ccc4ccccc4c3)[nH]c(=O)c2c1C#N)c1ccc(Cl)cc1Cl (stereo not drawn) [Example 3-58, 3-Cyano-N-[1-(2,4-dichlorophenyl)ethyl]-6-(2-naphthyl)-4-oxo-5H-pyrazolo[1,5-a]pyrazine-2-carboxamide]"
20,5,"Cc1ccc(-c2cn3nc(C(=O)NC4(c5ccc(F)cc5)CNC4)c(C(F)(F)F)c3c(=O)[nH]2)cc1C [Example 1-175, 6-(3,4-Dimethylphenyl)-N-[3-(4-fluorophenyl)azetidin-3-yl]-4-oxo-3-(trifluoromethyl)-4,5-dihydropyrazolo[1,5-a]pyrazine-2-carboxamide-hydrogen chloride (1/1)]"
21,4.5,"CC(=O)N1CC(NC(=O)c2cc3c(=O)[nH]c(-c4ccc5ccccc5c4)cn3n2)(c2ccc(F)cc2)C1 [Example 1-146, N-[1-Acetyl-3-(4-fluorophenyl)azetidin-3-yl]-6-(2-naphthyl)-4-oxo-5H-pyrazolo[1,5-a]pyrazine-2-carboxamide]"
22,2,"Cc1ccc(-c2cn3nc(C(=O)NCC(O)C(F)(F)F)c(C4CC4)c3c(=O)[nH]2)cc1F (racemic) [Example 1-159, 3-Cyclopropyl-6-(3-fluoro-4-methylphenyl)-4-oxo-N-(3,3,3-trifluoro-2-hydroxpropyl)-4,5-dihydro-pyrazolo[1,5-a]pyrazine-2-carboxamide (racemate)]"
23,5.8,"Cc1ccc(-c2cn3nc(C(=O)N[C@@H](c4ccc(F)cc4)C(C)(C)O)c(C(C)C)c3c(=O)[nH]2)cc1C [Example 1-135, 6-(3,4-Dimethylphenyl)-N-[(1S)-1-(4-fluorophenyl)-2-hydroxy-2-methylpropyl]-4-oxo-3-(propan-2-yl)-4,5-dihydropyrazolo[1,5-a]pyrazine-2-carboxamide]"
24,5.4,Cc1ccc(-c2cn3nc(C(=O)N[C@@H](c4ccc(F)cc4)C(C)(C)O)cc3c(=O)[nH]2)c(F)c1C [6-646]
